For 32 molecules, IC50 results are on record in patent publication US20210317134A1, “UBIQUITIN-SPECIFIC-PROCESSING PROTEASE 7 (USP7) MODULATORS AND USES THEREOF” (RAPT THERAPEUTICS, INC., priority 2019, published 2021).

For this assay, the target named is USP7 (Homo sapiens, UniProt Q93009). The experiment in a line: USP7 inhibitory potency (Table 1). The assay is classed as biochemical.
Chain of USP7 (Q93009 whole entry): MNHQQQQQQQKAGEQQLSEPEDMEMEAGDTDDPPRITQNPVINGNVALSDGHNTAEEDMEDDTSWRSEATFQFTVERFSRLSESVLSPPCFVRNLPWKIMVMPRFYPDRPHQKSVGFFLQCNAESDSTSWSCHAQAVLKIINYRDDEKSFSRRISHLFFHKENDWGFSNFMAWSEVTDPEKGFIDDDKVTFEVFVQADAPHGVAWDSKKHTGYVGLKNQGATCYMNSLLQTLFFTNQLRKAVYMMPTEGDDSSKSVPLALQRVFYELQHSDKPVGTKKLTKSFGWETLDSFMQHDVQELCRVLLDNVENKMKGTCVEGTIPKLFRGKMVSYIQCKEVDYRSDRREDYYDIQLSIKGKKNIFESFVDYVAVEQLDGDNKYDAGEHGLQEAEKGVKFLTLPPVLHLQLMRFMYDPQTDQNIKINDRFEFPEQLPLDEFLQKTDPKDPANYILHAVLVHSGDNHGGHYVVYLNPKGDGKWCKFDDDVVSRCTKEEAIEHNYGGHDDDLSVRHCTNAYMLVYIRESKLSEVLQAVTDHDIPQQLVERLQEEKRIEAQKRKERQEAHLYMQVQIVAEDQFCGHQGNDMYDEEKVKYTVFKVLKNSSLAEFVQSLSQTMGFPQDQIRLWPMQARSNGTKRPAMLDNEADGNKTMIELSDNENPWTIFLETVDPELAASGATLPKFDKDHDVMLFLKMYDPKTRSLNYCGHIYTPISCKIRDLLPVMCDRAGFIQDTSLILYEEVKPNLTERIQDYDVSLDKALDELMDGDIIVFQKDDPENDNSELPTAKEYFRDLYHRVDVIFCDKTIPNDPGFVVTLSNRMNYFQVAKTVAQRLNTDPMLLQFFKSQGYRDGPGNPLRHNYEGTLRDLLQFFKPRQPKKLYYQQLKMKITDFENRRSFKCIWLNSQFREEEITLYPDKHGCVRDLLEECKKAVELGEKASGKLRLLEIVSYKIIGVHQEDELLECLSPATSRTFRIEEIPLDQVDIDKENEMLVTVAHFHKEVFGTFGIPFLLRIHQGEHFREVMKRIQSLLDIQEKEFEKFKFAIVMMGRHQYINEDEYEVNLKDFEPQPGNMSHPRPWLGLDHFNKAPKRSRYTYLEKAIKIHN
`CN(C)Cc1ncoc1[C@H]1Cc2cc(Cl)cc(-c3ccnc4ccsc34)c2O1` [(R)-1-(5-(5-chloro-7-(thieno[3,2-b]pyridin-7-yl)-2,3-dihydrobenzofuran-2-yl)oxazol-4-yl)-N,N-dimethylmethanamine] displayed an IC50 of less than 1000 nM.
On to `O=C([C@H]1Cc2cc(Cl)cc(-c3ccnc4cc(CN5C(=O)CCNC5=O)sc34)c2O1)N1CCNCC1` [(R)-3-((7-(5-chloro-2-(piperazine-1-carbonyl)-2,3-dihydrobenzofuran-7-yl)thieno[3,2-b]pyridin-2-yl)methyl)dihydropyrimidine-2,4(1H,3H)-dione], for which the IC50 is less than 1000 nM.
Regarding `FC(F)(F)CNCc1cc2nccc(-c3cc(Cl)cc4c3O[C@@H](c3onc5c3CNCC5)C4)c2s1` [(R)-N-((7-(5-chloro-2-(4,5,6,7-tetrahydroisoxazolo[4,3-c]pyridin-3-yl)-2,3-dihydrobenzofuran-7-yl)thieno[3,2-b]pyridin-2-yl)methyl)-2,2,2-trifluoroethan-1-amine], the IC50 was less than 1000 nM.
The molecule `C[C@H](O)c1cc2c(-c3cc(Cl)cc4c3OC(C(=O)N3CCNCC3)C4)ccnc2[nH]1` (stereo partly drawn) [(5-chloro-7-(2-((S)-1-hydroxyethyl)-1H-pyrrolo[2,3-b]pyridin-4-yl)-2,3-dihydrobenzofuran-2-yl)(piperazin-1-yl)methanone] yielded an IC50 of 1000 to 10000 nM.
`CN(C)[C@H]1CCN(C(=O)[C@H]2Cc3cc(Cl)cc(-c4ccnc5ccsc45)c3O2)C1` [((R)-5-chloro-7-(thieno[3,2-b]pyridin-7-yl)-2,3-dihydrobenzofuran-2-yl)((S)-3-(dimethylamino)pyrrolidin-1-yl)methanone] showed an IC50 of 1000 to 10000 nM.
Take `CS(=O)(=O)NCc1cc2nccc(-c3cc(Cl)cc4c3O[C@@H](c3onc5c3CNCC5)C4)c2s1` [(R)-N-((7-(5-chloro-2-(4,5,6,7-tetrahydroisoxazolo[4,3-c]pyridin-3-yl)-2,3-dihydrobenzofuran-7-yl)thieno[3,2-b]pyridin-2-yl)methyl)methanesulfonamide]: the IC50 was less than 1000 nM.
Consider `CN(C)Cc1ncoc1[C@H]1Cc2cc(Cl)cc(-c3ncnc4ccsc34)c2O1` [(R)-1-(5-(5-chloro-7-(thieno[3,2-d]pyrimidin-4-yl)-2,3-dihydrobenzofuran-2-yl)oxazol-4-yl)-N,N-dimethylmethanamine], for which the IC50 was 1000 to 10000 nM.
`Cn1nc2c(c1[C@H]1Cc3cc(Cl)cc(-c4ccnc5cc(CO)sc45)c3O1)CNCC2` [(R)-(7-(5-chloro-2-(2-methyl-4,5,6,7-tetrahydro-2H-pyrazolo[4,3-c]pyridin-3-yl)-2,3-dihydrobenzofuran-7-yl)thieno[3,2-b]pyridin-2-yl)methanol] yielded an IC50 of less than 1000 nM.
In turn, `O=C(C1Cc2cc(Cl)cc(-c3ccnc4[nH]c(-c5ccccc5)cc34)c2O1)N1CCNCC1` (centres unmarked) [(5-chloro-7-(2-phenyl-1H-pyrrolo[2,3-b]pyridin-4-yl)-2,3-dihydrobenzofuran-2-yl)(piperazin-1-yl)methanone] registered an IC50 of 10000 to 30000 nM.
Consider `O=C(C1Cc2cc(Cl)cc(-c3ccnc4[nH]ccc34)c2O1)N1CCC(O)(c2ccc(Cl)cc2)CC1` (centres unmarked) [(5-chloro-7-(1H-pyrrolo[2,3-b]pyridin-4-yl)-2,3-dihydrobenzofuran-2-yl)(4-(4-chlorophenyl)-4-hydroxypiperidin-1-yl)methanone], for which the IC50 lay within 1000 to 10000 nM.
Consider `CCC(O)c1cc2nccc(-c3cc(Cl)cc4c3O[C@@H](c3onc5c3CNCC5)C4)c2s1` (stereo partly drawn) [drawing 1523, 1-(7-((R)-5-chloro-2-(4,5,6,7-tetrahydroisoxazolo[4,3-c]pyridin-3-yl)-2,3-dihydrobenzofuran-7-yl)thieno[3,2-b]pyridin-2-yl)propan-1-ol], for which the IC50 is less than 1000 nM.
Next, `O=C(C1Cc2cc(Cl)c(Cl)c(-c3ccnc4[nH]ccc34)c2O1)N1CCNCC1` (centres unmarked) [(5,6-dichloro-7-(1H-pyrrolo[2,3-b]pyridin-4-yl)-2,3-dihydrobenzofuran-2-yl)(piperazin-1-yl)methanone]: 1000 to 10000 nM.
Turning to `O=C([C@H]1Cc2cc(Cl)cc(-c3ccnc4cc(CN5C(=O)c6ccccc6C5=O)sc34)c2O1)N1CCNCC1` [(R)-2-((7-(5-chloro-2-(piperazine-1-carbonyl)-2,3-dihydrobenzofuran-7-yl)thieno[3,2-b]pyridin-2-yl)methyl)isoindoline-1,3-dione], the IC50 was less than 1000 nM.
Turning to `O=C(C1Cc2cc(Cl)cc(-c3ccnc4[nH]ccc34)c2O1)N1CCC(c2cnc[nH]2)CC1` (centres unmarked) [(4-(1H-imidazol-5-yl)piperidin-1-yl)(5-chloro-7-(1H-pyrrolo[2,3-b]pyridin-4-yl)-2,3-dihydrobenzofuran-2-yl)methanone], the IC50 was 1000 to 10000 nM.
Take `CN(C)C1CCc2noc([C@H]3Cc4cc(Cl)cc(-c5ccnc6cc(CO)sc56)c4O3)c2C1` (stereo partly drawn) [(7-((2R)-5-chloro-2-(5-(dimethylamino)-4,5,6,7-tetrahydrobenzo[c]isoxazol-3-yl)-2,3-dihydrobenzofuran-7-yl)thieno[3,2-b]pyridin-2-yl)methanol]: the IC50 was less than 1000 nM.
Molecule `COc1ccc2nccc(-c3cc(Cl)cc4c3OC(C(=O)N3CCNCC3)C4)c2c1` (centres unmarked) [(5-chloro-7-(6-methoxyquinolin-4-yl)-2,3-dihydrobenzofuran-2-yl)(piperazin-1-yl)methanone] displayed an IC50 of 10000 to 30000 nM.
In turn, `CC(C)N1CCc2noc([C@H]3Cc4cc(Cl)cc(-c5ccnc6ccsc56)c4O3)c2C1` [(R)-3-(5-chloro-7-(thieno[3,2-b]pyridin-7-yl)-2,3-dihydrobenzofuran-2-yl)-5-isopropyl-4,5,6,7-tetrahydroisoxazolo[4,3-c]pyridine] yielded an IC50 of less than 1000 nM.
`O=C(C1Cc2cc(Cl)cc(-c3ccnc4[nH]ccc34)c2O1)N1CCC(O)(Cc2cccnc2)CC1` (centres unmarked) [(5-chloro-7-(1H-pyrrolo[2,3-b]pyridin-4-yl)-2,3-dihydrobenzofuran-2-yl)(4-hydroxy-4-(pyridin-3-ylmethyl)piperidin-1-yl)methanone] showed an IC50 of 10000 to 30000 nM.
Molecule `O=C(C1Cc2cc(Cl)cc(-c3ccnc4[nH]ccc34)c2O1)N1CCN(c2cccnc2)CC1` (centres unmarked) [(5-chloro-7-(1H-pyrrolo[2,3-b]pyridin-4-yl)-2,3-dihydrobenzofuran-2-yl)(4-(pyridin-3-yl)piperazin-1-yl)methanone] registered an IC50 of 1000 to 10000 nM.
With `CCC(O)c1cc2ncnc(-c3cc(Cl)cc4c3O[C@@H](c3onc5c3CNCC5)C4)c2s1` (stereo partly drawn) [drawing 1579, 1-(4-((R)-5-chloro-2-(4,5,6,7-tetrahydroisoxazolo[4,3-c]pyridin-3-yl)-2,3-dihydrobenzofuran-7-yl)thieno[3,2-d]pyrimidin-6-yl)propan-1-ol], the IC50 is less than 1000 nM.
With `O=C([C@H]1Cc2cc(Cl)cc(-c3ccnc4occc34)c2O1)N1CCNCC1` [(R)-(5-chloro-7-(furo[2,3-b]pyridin-4-yl)-2,3-dihydrobenzofuran-2-yl)(piperazin-1-yl)methanone], the IC50 was 1000 to 10000 nM.
Take `Cn1nc([C@H]2Cc3cc(Cl)cc(-c4ccnc5ccsc45)c3O2)c2c1CCNC2` [(R)-7-(5-chloro-2-(1-methyl-4,5,6,7-tetrahydro-1H-pyrazolo[4,3-c]pyridin-3-yl)-2,3-dihydrobenzofuran-7-yl)thieno[3,2-b]pyridine]: the IC50 lay within 1000 to 10000 nM.
As to `Cc1cc(-c2cc(Cl)cc3c2OC(C(=O)N2CCNCC2)C3)ccn1` (centres unmarked) [(5-Chloro-7-(2-methylpyridin-4-yl)-2,3-dihydrobenzofuran-2-yl)(piperazin-1-yl)methanone], the IC50 fell in the range of 10000 to 30000 nM.
Turning to `NCc1cc2nccc(-c3cc(Cl)cc4c3O[C@@H](C(=O)N3CCNCC3)C4)c2s1` [(R)-(7-(2-(aminomethyl)thieno[3,2-b]pyridin-7-yl)-5-chloro-2,3-dihydrobenzofuran-2-yl)(piperazin-1-yl)methanone], the IC50 is less than 1000 nM.
Turning to `Clc1cc2c(c(-c3ccnc4ccsc34)c1)O[C@@H](c1onc3c1CNCC3)C2` [(R)-3-(5-chloro-7-(thieno[3,2-b]pyridin-7-yl)-2,3-dihydrobenzofuran-2-yl)-4,5,6,7-tetrahydroisoxazolo[4,3-c]pyridine], the IC50 is less than 1000 nM.
In the case of `O=C([C@H]1Cc2cc(Cl)cc(-c3ccnc4[nH]ccc34)c2O1)N1CCNCC1` [(R)-(5-chloro-7-(1H-pyrrolo[2,3-b]pyridin-4-yl)-2,3-dihydrobenzofuran-2-yl)(piperazin-1-yl)methanone], the IC50 was less than 1000 nM.
Turning to `O=C([C@H]1Cc2cc(Cl)cc(-c3ccnc4cc(CN5C(=O)CCCC5=O)sc34)c2O1)N1CCNCC1` [(R)-1-((7-(5-chloro-2-(piperazine-1-carbonyl)-2,3-dihydrobenzofuran-7-yl)thieno[3,2-b]pyridin-2-yl)methyl)piperidine-2,6-dione], the IC50 was less than 1000 nM.
Next, `O=C(C1CCNCC1)C1Cc2cc(Cl)cc(-c3ccnc4[nH]ccc34)c2O1` (centres unmarked) [(5-chloro-7-(1H-pyrrolo[2,3-b]pyridin-4-yl)-2,3-dihydrobenzofuran-2-yl)(piperidin-4-yl)methanone]: 1000 to 10000 nM; `O=C([C@H]1Cc2cc(Cl)cc(-c3ncnc4cc(CN5C(=O)CCC5=O)oc34)c2O1)N1CCNCC1` [(R)-1-((4-(5-chloro-2-(piperazine-1-carbonyl)-2,3-dihydrobenzofuran-7-yl)furo[3,2-d]pyrimidin-6-yl)methyl)pyrrolidine-2,5-dione]: less than 1000 nM; `CCC1(CC)Cc2nccc(-c3cc(Cl)cc4c3O[C@@H](c3onc5c3CNCC5)C4)c2C1` [(R)-3-(5-chloro-7-(6,6-diethyl-6,7-dihydro-5H-cyclopenta[b]pyridin-4-yl)-2,3-dihydrobenzofuran-2-yl)-4,5,6,7-tetrahydroisoxazolo[4,3-c]pyridine]: 1000 to 10000 nM.
Turning to `CC(C)S(=O)(=O)NCCc1cc2nccc(-c3cc(Cl)cc4c3O[C@@H](C(=O)N3CCNCC3)C4)c2s1` [(R)-N-(2-(7-(5-chloro-2-(piperazine-1-carbonyl)-2,3-dihydrobenzofuran-7-yl)thieno[3,2-b]pyridin-2-yl)ethyl)propane-2-sulfonamide], the IC50 is less than 1000 nM.
Molecule `Cc1nnc2n1CCN(C(=O)[C@H]1Cc3cc(Cl)cc(-c4ccnc5cc(CO)sc45)c3O1)C2` [(R)-(5-chloro-7-(2-(hydroxymethyl)thieno[3,2-b]pyridin-7-yl)-2,3-dihydrobenzofuran-2-yl)(3-methyl-5,6-dihydro-[1,2,4]triazolo[4,3-a]pyrazin-7(8H)-yl)methanone] yielded an IC50 of 1000 to 10000 nM.

As a reminder, the IC50 is the point on the concentration scale where inhibition reaches its midpoint.
